Laboratory results as given in patent US20230056205A1, “SUBSTITUTED 4,6-DIHYDROSPIRO[[1,2,3]TRIAZOLO[4,5-B]PYRIDINE-7,3'-INDOLINE]-2',5(3H)-DIONE ANALOGUES” (The Board of Regents of The University of Texas System, priority 2019, published 2023).
Like-named read-outs stand apart in the source and are kept apart here.

Key:
DENV-1 replicon = test: Luciferase reporter replicon-based screening, DENV-1; type: cell-based, DENV-1 (strain WestPac); conditions: Dengue virus, DENV1, Huh-7, 48 h, read-out: EC50 DENV-1
Procedure: (§1) Luciferase Reporter Replicon-Based Screening. Huh7 cells containing a luciferase reporter replicon of DENV-1 (strain WestPac), DENV-2 (New Guinea C strain, NGC), DENV-3 (strain D3MY05-34640) and DENV-4 (strain D4MY01-22713) were used in this study. The replicon cells containing the Renilla luciferase and neomycin-resistance genes were generated using a similar strategy as described previously.^55 Briefly, Huh7 DENV-1 to -4 replicon cells were seeded at a density of 10k per well in a 96-well microplate. After incubation at 37° C. with 5% CO2 overnight, the cells were treated with 2-fold serial dilutions of compounds. Experiments were performed in duplicates. After 48 h of incubation, luciferase activities were measured using the EnduRen live-cell substrate (Promega) by following the manufacturer’s instructions. The dose-dependent curve was plotted and EC50 values were calculated using four parameter logistic regression in GraphPad software Prism 8.0.

DENV-2 replicon = test: Luciferase reporter replicon-based screening, DENV-2; type: cell-based, DENV-2 (New Guinea C strain, NGC)
Procedure: as §1

[1] = Cytotoxicity assay (CellTiter-Glo); type: cell-based; conditions: human, Huh7 cells stably expressing DENV-2 replicon
Procedure: Cytotoxicity Assay. Huh7 cells or Huh7 replicon cells were seeded in a 96-well plate. After incubation at 37° C. with 5% CO2 overnight, the cells were treated with 2-fold serial dilutions of compounds. Experiments were performed in duplicates. After 48 h of incubation, cell viability was measured by adding the CellTiter-Glo reagent (Promega) to each well. The cell viability in 0.45% DMSO-treatment groups was treated at 100%. The cell viability in compound-treated wells was normalized to that of DMSO-treated wells. CC50 values were calculated using four parameter logistic regression in GraphPad software Prism 8.0.

DENV-4 replicon = test: Luciferase reporter replicon-based screening, DENV-4; type: cell-based, DENV-4 (strain D4MY01-22713); conditions: Dengue virus, DENV4, Huh-7, 48 h, read-out: EC50 DENV-4
Procedure: as §1

DENV-3 replicon = test: Luciferase reporter replicon-based screening, DENV-3; type: cell-based, DENV-3 (strain D3MY05-34640)
Procedure: as §1

[2] = Dengue virus, DENV2, Huh-7, 48 h, read-out: EC50 DENV-2, Huh7 cells stably expressing DENV-2 replicon, 48 h
[3] = Dengue virus, DENV3, Huh-7, 48 h, read-out: EC50 DENV-3, Huh7 cells stably expressing DENV-3 replicon, 48 h
[4] = read-out: EC50 DENV-2, Huh7 cells stably expressing DENV-2 replicon, 48 h
[5] = read-out: EC50 DENV-3, Huh7 cells stably expressing DENV-3 replicon, 48 h

| SMILES | EC50 (DENV-1 replicon) [nM] | EC50 (DENV-2 replicon; [2]) [nM] | CC50 at 48 h [1] [nM] | EC50 (DENV-4 replicon) [nM] | EC50 (DENV-3 replicon; [3]) [nM] | EC50 (DENV-2 replicon; [4]) [nM] | EC50 (DENV-3 replicon; [5]) [nM] |
| --- | --- | --- | --- | --- | --- | --- | --- |
| Cc1ccc(CN2C(=O)[C@]3(CC(=O)Nc4c3nnn4[C@@H](C)c3ccc(Cl)cc3)c3cc(Cl)ccc32)cn1 [Compound 37, (R)-5'-Chloro-3-((S)-1-(4-chlorophenyl)ethyl)-1'-((6-methylpyridin-3-yl)methyl)-4,6-dihydrospiro[[1,2,3]triazolo[4,5-b]pyridine-7,3'-indoline]-2',5(3H)-dione] | > 5000 | 150 | > 10000 | > 5000 | 11 |  |  |
| COc1cccc(CN2C(=O)[C@]3(CC(=O)Nc4c3nnn4[C@@H](C)c3ccc(Cl)cc3)c3cc(Cl)ccc32)c1 [Compound 29, (R)-5'-Chloro-3-((S)-1-(4-chlorophenyl)ethyl)-1'-(3-methoxybenzyl)-4,6-dihydrospiro[[1,2,3]triazolo[4,5-b]pyridine-7,3'-indoline]-2',5(3H)-dione] | 2600 | 830 | > 10000 | 6200 | 87 |  |  |
| C[C@@H](c1ccc(Cl)cc1)n1nnc2c1NC(=O)C[C@]21C(=O)N(Cc2ccc(Cl)nc2)c2ccc(Cl)cc21 [Compound 36, (R)-5'-Chloro-3-((S)-1-(4-chlorophenyl)ethyl)-1'-((6-chloropyridin-3-yl)methyl)-4,6-dihydrospiro[[1,2,3]triazolo[4,5-b]pyridine-7,3ʹ-indoline]-2',5(3H)-dione] | > 5000 | 78 | > 10000 | > 5000 | 6 |  |  |
| CNCCN1C(=O)[C@]2(CC(=O)Nc3c2nnn3[C@@H](C)c2ccc(Cl)cc2)c2cc(Cl)ccc21 [Compound 62, (R)-5'-chloro-3-((S)-1-(4-chlorophenyl)ethyl)-1'-(2-(methylamino)ethyl)-4,6-dihydrospiro[[1,2,3]triazolo[4,5-b]pyridine-7,3'-indoline]-2',5(3H)-dione] | > 5000 | 120 | > 10000 | > 5000 | 22 |  |  |
| CCCCN1C(=O)[C@]2(CC(=O)Nc3c2nnn3[C@@H](C)c2ccc(Cl)cc2)c2cc(Cl)ccc21 [Compound 10, (R)-1'-Butyl-5'-chloro-3-((S)-1-(4-chlorophenyl)ethyl)-4,6-dihydrospiro[[1,2,3]triazolo[4,5-b]pyridine-7,3'-indoline]-2',5(3H)-dione] | 1300 | 75 | > 10000 | > 5000 | 18 |  |  |
| C[C@@H](c1ccc(Cl)cc1)n1nnc2c1NC(=O)C[C@]21C(=O)N(Cc2ccccc2)c2ccc(Cl)cc21 [Compound 24, (R)-1ʹ-Benzyl-5ʹ-chloro-3-((S)-1-(4-chlorophenyl)ethyl)-4,6-dihydrospiro[[1,2,3]triazolo[4,5-b]pyridine-7,3ʹ-indoline]-2ʹ,5(3H)-dione] | 2000 | 140 to 290 | > 10000 | > 5000 | 20 to 51 | 150 | 20 |
| C[C@@H](c1ccc(Cl)cc1)n1nnc2c1NC(=O)C[C@]21C(=O)N(CCC(C)(C)C)c2ccc(Cl)cc21 [Compound 16, (R)-5ʹ-Chloro-3-((S)-1-(4-chlorophenyl)ethyl)-1ʹ-(3,3-dimethylbutyl)-4,6-dihydrospiro[[1,2,3]triazolo[4,5-b]pyridine-7,3ʹ-indoline]-2ʹ,5(3H)-dione] | 1100 | 870 | > 10000 | 3900 | 82 |  |  |
| CC(C)N1C(=O)C[C@]2(C(=O)Nc3ccc(Cl)cc32)c2nnn([C@@H](C)c3ccc(Cl)cc3)c21 [Compound 21, (R)-5'-Chloro-3-((S)-1-(4-chlorophenyl)ethyl)-4-isopropyl-4,6-dihydrospiro[[1,2,3]triazolo[4,5-b]pyridine-7,3'-indoline]-2',5(3H)-dione] | 2100 | 860 | > 10000 | 4400 | 310 |  |  |
| C[C@@H](c1ccc(Cl)cc1)n1nnc2c1NC(=O)C[C@]21C(=O)N(Cc2ccccn2)c2ccc(Cl)cc21 [Compound 33, (R)-5'-chloro-3-((S)-1-(4-chlorophenyl)ethyl)-1'-(pyridin-2-ylmethyl)-4,6-dihydrospiro[[1,2,3]triazolo[4,5-b]pyridine-7,3'-indoline]-2',5(3H)-dione] | > 5000 | 20 | > 10000 | > 5000 | 3 |  |  |
| C[C@@H](c1ccc(Cl)cc1)n1nnc2c1NC(=O)C[C@]21C(=O)N(CCF)c2ccc(Cl)cc21 [Compound 46, (R)-5'-Chloro-3-((S)-1-(4-chlorophenyl)ethyl)-1'-(2-fluoroethyl)-4,6-dihydrospiro[[1,2,3]triazolo[4,5-b]pyridine-7,3'-indoline]-2',5(3H)-dione] | > 5000 | 37 to 290 | > 10000 | > 5000 | 9 to 76 | 38 | 9 |
| CC#CCN1C(=O)[C@]2(CC(=O)Nc3c2nnn3[C@@H](C)c2ccc(Cl)cc2)c2cc(Cl)ccc21 [Compound 20, (R)-1'-(But-2-yn-1-yl)-5'-chloro-3-((S)-1-(4-chlorophenyl)ethyl)-4,6-dihydrospiro[[1,2,3]triazolo[4,5-b]pyridine-7,3'-indoline]-2',5(3H)-dione] | > 5000 | 63 | > 10000 | > 5000 | 20 |  |  |
| C[C@@H](c1ccc(Cl)cc1)n1nnc2c1N(C)C(=O)C(C)(C)[C@]21C(=O)N(C)c2ccc(Cl)cc21 [Compound 23, (S)-5'-Chloro-3-((S)-1-(4-chlorophenyl)ethyl)-1ʹ,4,6,6-tetramethyl-4,6-dihydrospiro[[1,2,3]triazolo[4,5-b]pyridine-7,3ʹ-indoline]-2ʹ,5(3H)-dione] | > 5000 | > 5000 | > 10000 | > 5000 | > 5000 |  |  |
| CCCCCCCCCCN1C(=O)[C@]2(CC(=O)Nc3c2nnn3[C@@H](C)c2ccc(Cl)cc2)c2cc(Cl)ccc21 [Compound 12, (R)-5'-Chloro-3-((S)-1-(4-chlorophenyl)ethyl)-1'-decyl-4,6-dihydrospiro[[1,2,3]triazolo[4,5-b]pyridine-7,3'-indoline]-2ʹ,5(3H)-dione] | 3400 | > 10000 | > 10000 | 7300 | 1200 |  |  |
| C[C@@H](c1ccc(Cl)cc1)n1nnc2c1NC(=O)C[C@]21C(=O)N(CCc2ccccc2)c2ccc(Cl)cc21 [Compound 32, (R)-5'-Chloro-3-((S)-1-(4-chlorophenyl)ethyl)-1'-phenethyl-4,6-dihydrospiro[[1,2,3]triazolo[4,5-b]pyridine-7,3'-indoline]-2',5(3H)-dione] | 1100 | 600 | > 10000 | > 5000 | 190 |  |  |
| C[C@@H](c1ccc(Cl)cc1)n1nnc2c1NC(=O)C[C@]21C(=O)N(CCN(C)C)c2ccc(Cl)cc21 [Compound 57, (R)-5'-Chloro-3-((S)-1-(4-chlorophenyl)ethyl)-1'-(2-(dimethylamino)ethyl)-4,6-dihydrospiro[[1,2,3]triazolo[4,5-b]pyridine-7,3'-indoline]-2',5(3H)-dione] | > 5000 | 25 | > 10000 | > 5000 | 2 |  |  |
| COCCCN1C(=O)C[C@]2(C(=O)Nc3ccc(Cl)cc32)c2nnn([C@@H](C)c3ccc(Cl)cc3)c21 [Compound 40, (R)-5'-Chloro-3-((S)-1-(4-chlorophenyl)ethyl)-4-(3-methoxypropyl)-4,6-dihydrospiro[[1,2,3]triazolo[4,5-b]pyridine-7,3-indoline]-2',5(3H)-dione] | > 10000 | 8700 | > 10000 | > 10000 | 910 |  |  |
| C[C@@H](c1ccc(Cl)cc1)n1nnc2c1NC(=O)C[C@]21C(=O)N(Cc2ccncc2)c2ccc(Cl)cc21 [Compound 35, (R)-5'-Chloro-3-((S)-1-(4-chlorophenyl)ethyl)-1'-(pyridin-4-ylmethyl)-4,6-dihydrospiro[[1,2,3]triazolo[4,5-b]pyridine-7,3'-indoline]-2',5(3H)-dione] | > 5000 | 72 | > 10000 | > 5000 | 25 |  |  |
